Results taken from ChEMBL document CHEMBL1909046, “DrugMatrix in vitro pharmacology data”.
pIC50, pKi: −log10 of the molar value.

Assays:
[1] = DRUGMATRIX: Atrial Natriuretic Factor (ANF) radioligand binding (ligand: [125I] ANF (rat)); format: cell membranes, Cavia porcellus, Dunkin-Hartley, Adrenal gland, Membrane; details: Not Active = under 50% inhibition at 10 µM
Glucocorticoid receptor = target: T1, Glucocorticoid receptor (Homo sapiens, UniProt P04150); details: hela s3; further: in other assays of this panel Not Active means under 50% inhibition at 10 µM
T1 sequence (P04150 whole entry): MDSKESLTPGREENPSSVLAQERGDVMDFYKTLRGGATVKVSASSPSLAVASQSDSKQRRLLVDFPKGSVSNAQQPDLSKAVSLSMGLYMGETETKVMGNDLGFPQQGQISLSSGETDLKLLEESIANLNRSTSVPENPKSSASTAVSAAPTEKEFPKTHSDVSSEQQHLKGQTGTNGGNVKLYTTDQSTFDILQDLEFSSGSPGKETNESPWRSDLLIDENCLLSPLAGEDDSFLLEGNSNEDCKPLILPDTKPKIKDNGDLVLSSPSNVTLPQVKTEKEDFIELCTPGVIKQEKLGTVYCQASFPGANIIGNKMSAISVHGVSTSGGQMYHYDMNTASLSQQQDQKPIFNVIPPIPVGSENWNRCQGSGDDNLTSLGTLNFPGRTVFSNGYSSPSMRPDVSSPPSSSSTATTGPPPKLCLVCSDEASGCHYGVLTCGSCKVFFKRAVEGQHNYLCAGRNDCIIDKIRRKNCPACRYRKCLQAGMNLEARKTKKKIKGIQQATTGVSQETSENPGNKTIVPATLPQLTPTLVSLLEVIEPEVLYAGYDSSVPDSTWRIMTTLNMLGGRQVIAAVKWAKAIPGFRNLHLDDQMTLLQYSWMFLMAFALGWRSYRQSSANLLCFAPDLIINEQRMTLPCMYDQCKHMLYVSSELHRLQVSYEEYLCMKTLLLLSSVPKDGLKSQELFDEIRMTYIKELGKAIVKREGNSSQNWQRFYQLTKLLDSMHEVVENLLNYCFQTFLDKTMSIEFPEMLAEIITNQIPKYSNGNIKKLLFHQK

[2] = target: T2, 5-hydroxytryptamine receptor 1A (Rattus norvegicus, UniProt P19327); format: cell membranes, CHO-K1, Membrane; details: for IC50: cho-k1; on all read-outs here: in other assays of this panel Not Active means under 50% inhibition at 10 µM
T2 sequence (P19327 whole entry): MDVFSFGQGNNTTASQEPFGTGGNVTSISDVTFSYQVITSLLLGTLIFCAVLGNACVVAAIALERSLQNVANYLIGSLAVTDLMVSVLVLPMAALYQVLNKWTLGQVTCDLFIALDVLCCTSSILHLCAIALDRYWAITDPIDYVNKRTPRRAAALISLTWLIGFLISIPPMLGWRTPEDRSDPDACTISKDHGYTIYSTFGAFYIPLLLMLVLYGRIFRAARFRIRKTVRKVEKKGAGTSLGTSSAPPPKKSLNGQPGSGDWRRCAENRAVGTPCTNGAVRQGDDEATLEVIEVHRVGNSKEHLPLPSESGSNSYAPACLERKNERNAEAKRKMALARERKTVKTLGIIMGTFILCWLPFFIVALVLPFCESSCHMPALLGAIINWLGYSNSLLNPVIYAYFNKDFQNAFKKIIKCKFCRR

[3] = DRUGMATRIX: Glutamate, AMPA radioligand binding (ligand: [3H] AMPA); format: cell membranes, Rattus norvegicus, Wistar, Cerebral cortex, Membrane; details: Not Active = under 50% inhibition at 10 µM
[4] = target: cGMP-specific 3',5'-cyclic phosphodiesterase (Homo sapiens, UniProt O76074); experiment: DRUGMATRIX: Phosphodiesterase PDE5 enzyme inhibition (substrate: [3H]cGMP + cGMP); format: tissue-based, Platelet; details: Not Active = under 50% inhibition at 10 µM; for IC50: platelet
[5] = target: T3, C-C chemokine receptor type 4 (Homo sapiens, UniProt P51679); format: cell membranes, Membrane; details: chem-1; further: in other assays of this panel Not Active means under 50% inhibition at 10 µM
T3 sequence (P51679 whole entry): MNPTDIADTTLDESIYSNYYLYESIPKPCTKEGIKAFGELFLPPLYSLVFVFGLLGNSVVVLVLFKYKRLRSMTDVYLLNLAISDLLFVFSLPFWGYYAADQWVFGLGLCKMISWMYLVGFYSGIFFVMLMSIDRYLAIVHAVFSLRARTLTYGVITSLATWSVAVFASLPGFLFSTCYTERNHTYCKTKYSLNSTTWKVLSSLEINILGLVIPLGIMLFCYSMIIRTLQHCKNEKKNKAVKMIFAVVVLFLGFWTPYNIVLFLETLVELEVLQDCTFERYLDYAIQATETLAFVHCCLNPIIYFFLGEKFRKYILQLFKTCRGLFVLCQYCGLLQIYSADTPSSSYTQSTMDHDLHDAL

[6] = target: T4, Type-2 angiotensin II receptor (Homo sapiens, UniProt P50052); format: cell-based; details: cho-k1; further: in other assays of this panel Not Active means under 50% inhibition at 10 µM
T4 sequence (P50052 whole entry): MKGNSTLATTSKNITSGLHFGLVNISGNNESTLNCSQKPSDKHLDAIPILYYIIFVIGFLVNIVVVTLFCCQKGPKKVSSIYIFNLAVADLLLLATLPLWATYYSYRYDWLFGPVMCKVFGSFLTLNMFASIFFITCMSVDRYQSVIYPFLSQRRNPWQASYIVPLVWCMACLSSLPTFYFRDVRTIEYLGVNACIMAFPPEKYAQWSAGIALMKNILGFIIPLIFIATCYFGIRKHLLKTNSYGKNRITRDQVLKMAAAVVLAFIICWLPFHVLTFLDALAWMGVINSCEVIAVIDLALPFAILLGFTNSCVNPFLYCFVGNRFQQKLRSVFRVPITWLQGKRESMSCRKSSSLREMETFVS

SMILES | IC50 [1] | Ki [1] | IC50 (Glucocorticoid receptor) | IC50 [2] | IC50 [3] | Ki [3] | IC50 [4] | IC50 [5] | IC50 [6] | pIC50 ([2]; read-out: IC50) | pKi ([2]; read-out: Ki) | pIC50 ([4]; read-out: IC50)
C[C@H]1O[C@@H](n2cc(F)c(=O)[nH]c2=O)[C@H](O)[C@@H]1O [DOXIFLURIDINE] | Not Active | Not Active | Not Active | Not Active | Not Active | Not Active | Not Active | Not Active | Not Active | – | – | –
Cn1c(=O)c2c(ncn2CC(O)CO)n(C)c1=O (centres undefined) [DYPHYLLINE] | Not Active | Not Active | Not Active | Not Active | Not Active | Not Active | Not Active | Not Active | Not Active | – | – | –
CC[C@H]1CN2CCc3cc(OC)c(OC)cc3[C@@H]2C[C@@H]1C[C@H]1NCCc2cc(OC)c(OC)cc21 [EMETINE] | Not Active | Not Active | Not Active | Not Active | Not Active | Not Active | Not Active | Not Active | Not Active | – | – | –
C[C@@H](CO)NC(=O)[C@@H]1C=C2c3cccc4[nH]cc(c34)C[C@H]2N(C)C1 [ERGONOVINE] | Not Active | Not Active | Not Active | – | Not Active | Not Active | Not Active | Not Active | Not Active | 8.09 | 8.33 | –
COC(=O)CCc1ccc(OCC(O)CNC(C)C)cc1 (centres undefined) [ESMOLOL] | Not Active | Not Active | Not Active | Not Active | Not Active | Not Active | Not Active | Not Active | Not Active | – | – | –
CCC1(C)CC(=O)NC1=O (centres undefined) [ETHOSUXIMIDE] | Not Active | Not Active | Not Active | Not Active | Not Active | Not Active | Not Active | Not Active | Not Active | – | – | –
C#C[C@]1(OC(C)=O)CC[C@H]2[C@@H]3CCC4=C[C@@H](OC(C)=O)CC[C@@H]4[C@H]3CC[C@@]21C [ETHYNODIOL DIACETATE] | Not Active | Not Active | Not Active | Not Active | Not Active | Not Active | Not Active | Not Active | Not Active | – | – | –
CC(C)(C)NC(=O)[C@H]1CC[C@H]2[C@@H]3CC[C@H]4NC(=O)C=C[C@]4(C)[C@H]3CC[C@]12C [FINASTERIDE] | Not Active | Not Active | Not Active | Not Active | Not Active | Not Active | Not Active | Not Active | Not Active | – | – | –
COc1ccc2c3c1O[C@H]1C[C@@H](O)C=C[C@@]31CCN(C)C2 [GALANTAMINE] | Not Active | Not Active | Not Active | Not Active | Not Active | Not Active | Not Active | Not Active | Not Active | – | – | –
Nc1ccn([C@@H]2O[C@H](CO)[C@@H](O)C2(F)F)c(=O)n1 [GEMCITABINE] | Not Active | Not Active | Not Active | Not Active | Not Active | Not Active | Not Active | Not Active | Not Active | – | – | –
CC(C)=CCC/C(C)=C/CO [GERANIOL] | Not Active | Not Active | Not Active | Not Active | Not Active | Not Active | Not Active | Not Active | Not Active | – | – | –
N=C(N)NC(=O)Cc1c(Cl)cccc1Cl [GUANFACINE] | Not Active | Not Active | Not Active | Not Active | Not Active | Not Active | Not Active | Not Active | Not Active | – | – | –
Oc1c(Cl)cc(Cl)c(Cl)c1Cc1c(O)c(Cl)cc(Cl)c1Cl [HEXACHLOROPHENE] | Not Active | Not Active | Not Active | Not Active | Not Active | Not Active | Not Active | Not Active | Not Active | – | – | –
NNc1nncc2ccccc12 [HYDRALAZINE] | Not Active | Not Active | Not Active | Not Active | Not Active | Not Active | Not Active | Not Active | Not Active | – | – | –
COC1=C(OC)C(=O)C(CCCCCCCCCCO)=C(C)C1=O [IDEBENONE] | Not Active | Not Active | Not Active | Not Active | Not Active | Not Active | Not Active | Not Active | Not Active | – | – | –
CC(C)NNC(=O)c1ccncc1 [IPRONIAZID] | Not Active | Not Active | Not Active | Not Active | Not Active | Not Active | Not Active | Not Active | Not Active | – | – | –
Cc1c(OCC(F)(F)F)ccnc1C[S+]([O-])c1nc2ccccc2[nH]1 (centres undefined) [LANSOPRAZOLE] | Not Active | Not Active | Not Active | Not Active | Not Active | Not Active | Not Active | Not Active | Not Active | – | – | –
O=c1cc(N2CCOCC2)oc2c(-c3ccccc3)cccc12 [LY-294002] | Not Active | Not Active | Not Active | Not Active | Not Active | Not Active | – | Not Active | Not Active | – | – | 5.02
COc1ccc2[nH]cc(CCNC(C)=O)c2c1 [MELATONIN] | Not Active | Not Active | Not Active | Not Active | Not Active | Not Active | Not Active | Not Active | Not Active | – | – | –
NC(=O)C[S+]([O-])C(c1ccccc1)c1ccccc1 (centres undefined) [MODAFINIL] | Not Active | Not Active | Not Active | Not Active | Not Active | Not Active | Not Active | Not Active | Not Active | – | – | –
CCN(CC)CCOCCC1=CCC2CC1C2(C)C (centres undefined) [MYRTECAINE] | Not Active | Not Active | Not Active | Not Active | Not Active | Not Active | Not Active | Not Active | Not Active | – | – | –
O=C(O)c1cccnc1Nc1cccc(C(F)(F)F)c1 [NIFLUMIC ACID] | Not Active | Not Active | Not Active | Not Active | Not Active | Not Active | Not Active | Not Active | Not Active | – | – | –
